Data as given in ChEMBL document CHEMBL1201862, “PubChem BioAssay data set” (2004).
Calls of active or inactive are those of the source.

How the values were obtained:
Streptokinase A = biological target: T1, Streptokinase A (Streptococcus pyogenes serotype M1, UniProt P10520); assay: S. pyogenes streptokinase expression inhibitors, potency, dose response, plasminogen activation absorbance, OD405 (AID 1914); format: functional, Streptococcus pyogenes M1 GAS;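 further: secreted streptokinase activity via plasminogen activation per viability signal from cell pellet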
T1 sequence (P10520 whole entry): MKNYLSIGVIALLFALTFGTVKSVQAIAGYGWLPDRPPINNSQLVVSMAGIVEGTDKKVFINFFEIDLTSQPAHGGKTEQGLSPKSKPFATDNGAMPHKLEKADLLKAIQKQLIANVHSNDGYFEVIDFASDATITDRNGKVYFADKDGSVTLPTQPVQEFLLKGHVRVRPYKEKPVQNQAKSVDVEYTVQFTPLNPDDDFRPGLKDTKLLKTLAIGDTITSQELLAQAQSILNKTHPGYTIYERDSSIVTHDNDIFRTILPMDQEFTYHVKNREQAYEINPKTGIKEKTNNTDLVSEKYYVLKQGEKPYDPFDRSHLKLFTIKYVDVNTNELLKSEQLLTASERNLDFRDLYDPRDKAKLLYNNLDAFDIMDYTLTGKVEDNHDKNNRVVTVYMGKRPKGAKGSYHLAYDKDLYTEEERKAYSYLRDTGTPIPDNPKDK

[1] = system: Streptococcus sp. 'group A'; assay: growth inhibition of control SK(-) GAS strain, dose response, counter-screen for streptokinase expression inhibitor project, luminescence, kanamycin, BacTiterGlo, confirmation (AID 1900); format: functional, organism-based
Streptococcus = assay: Group A Streptococcus viability loss, dose response, counter-screen for streptokinase expression inhibitor project, luminescence, BacTiterGlo (AID 1915); format: functional, organism-based;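 further: potency for reduction of bacterial viability or growth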
Prothrombin = Prothrombin (Homo sapiens, UniProt P00734); assay: Thrombin 1536 HTS Dose Response Confirmation. [Related pubchem assays: 1046 (Thrombin 1536 HTS; hits were confirmed in this assay)]; format: functional
[2] = biological target: T2, Heat shock factor protein 1 (Mus musculus, UniProt P38532); assay: HSF1 potentiators in luciferase reporter cells, confirmation, cell-based, NIH3T3, luminescence, dose retest (AID 435004); format: functional;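 further: stress induced by proteasome inhibitor MG132 added 30 min after compound; luciferase reporter driven by HSF1 response element in NIH3T3 cells; actives raise luminescence as potentiators of the MG132 stress response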
T2 sequence (P38532 whole entry): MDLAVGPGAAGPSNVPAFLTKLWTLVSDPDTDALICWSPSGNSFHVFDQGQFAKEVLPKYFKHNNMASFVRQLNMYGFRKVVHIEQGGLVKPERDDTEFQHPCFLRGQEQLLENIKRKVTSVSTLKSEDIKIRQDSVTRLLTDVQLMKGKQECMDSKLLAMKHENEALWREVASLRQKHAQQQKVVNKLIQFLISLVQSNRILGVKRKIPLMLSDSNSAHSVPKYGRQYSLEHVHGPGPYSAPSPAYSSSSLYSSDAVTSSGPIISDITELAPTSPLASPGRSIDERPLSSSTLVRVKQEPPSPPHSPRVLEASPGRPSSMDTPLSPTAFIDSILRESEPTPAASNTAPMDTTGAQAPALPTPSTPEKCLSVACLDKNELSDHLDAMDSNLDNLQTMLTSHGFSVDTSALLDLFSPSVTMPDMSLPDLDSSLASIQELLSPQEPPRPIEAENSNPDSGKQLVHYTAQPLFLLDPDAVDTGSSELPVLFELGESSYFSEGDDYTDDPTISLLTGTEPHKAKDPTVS

[3] = HEp-2 cell cytotoxicity, dose response, cytotoxicity control for RSV inhibitor project, HTS (AID 2410); format: functional; conditions: human respiratory syncytial virus
[4] = biological target: Neurotensin receptor type 1 (Homo sapiens, UniProt P30989); format: functional;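 further: Image-based confirmatory dose-response assay measuring agonist activity at NTR1; NTR1-expressing U2OS osteosarcoma cells imaged for beta-arrestin GFP spot formation; agonist potency where compounds increase beta-arrestin recruitment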
Neurotensin receptor type 1, sequence (P30989 whole entry): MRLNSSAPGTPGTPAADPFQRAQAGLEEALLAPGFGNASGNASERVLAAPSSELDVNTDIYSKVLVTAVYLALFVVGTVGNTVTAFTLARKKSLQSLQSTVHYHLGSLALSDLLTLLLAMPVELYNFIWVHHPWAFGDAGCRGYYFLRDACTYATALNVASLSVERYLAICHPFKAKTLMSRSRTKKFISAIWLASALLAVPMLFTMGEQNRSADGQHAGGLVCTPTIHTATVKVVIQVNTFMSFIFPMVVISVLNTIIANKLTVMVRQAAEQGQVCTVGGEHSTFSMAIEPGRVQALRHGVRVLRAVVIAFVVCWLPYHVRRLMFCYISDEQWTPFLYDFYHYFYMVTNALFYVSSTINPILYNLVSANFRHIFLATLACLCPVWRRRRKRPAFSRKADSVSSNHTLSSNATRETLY

[5] = biological target: T3, Ubiquitin-conjugating enzyme E2 N (Homo sapiens, UniProt P61088); format: functional
T3 sequence (P61088 whole entry): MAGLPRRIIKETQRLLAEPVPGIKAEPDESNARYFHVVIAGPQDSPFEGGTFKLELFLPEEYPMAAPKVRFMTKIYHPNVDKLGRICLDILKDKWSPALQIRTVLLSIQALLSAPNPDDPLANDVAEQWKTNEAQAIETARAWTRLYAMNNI

[6] = Luminescence Cell-Based Dose Retest to Confirm Inhibitors of Cancer Stem Cells. [Related pubchem assays (depositor defined):AID2717, AID2721]; format: functional; conditions: Homo sapiens
[7] = A Cell Based Secondary Assay To Explore Cytotoxicity of Compounds that Sensitize Mycobacterium Tuberculosis to Beta-Lactam Antibiotics.; format: functional
[8] = cytotoxicity in HEK-293T cells, dose response, cytotoxicity control for BCR NF-kB inhibitor project, luminescence, B-cell screen hits (AID 489021); format: functional, cell-based;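 further: HEK-293T cells carrying an NF-kB luciferase reporter; cells exposed to compound for about 14 hours before viability readout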
[9] = biological target: T3, Ubiquitin-conjugating enzyme E2 N; format: functional; remark: listed apart in the source
Bcl-2-related protein A1 = biological target: T4, Bcl-2-related protein A1 (Mus musculus, UniProt Q07440); format: functional;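 further: confirmatory dose–response counterscreen on Bfl-1, used to check hits from a UBC13 polyubiquitin inhibitor campaign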
T4 sequence (Q07440 whole entry): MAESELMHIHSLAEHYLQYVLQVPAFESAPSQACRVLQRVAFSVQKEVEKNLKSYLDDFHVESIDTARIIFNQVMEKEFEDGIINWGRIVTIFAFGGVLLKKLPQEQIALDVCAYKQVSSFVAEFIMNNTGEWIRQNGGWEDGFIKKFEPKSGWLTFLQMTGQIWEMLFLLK

[10] = biological target: T5, DNA repair protein RAD52 homolog (Homo sapiens, UniProt P43351); format: functional, biochemical
T5 sequence (P43351 whole entry): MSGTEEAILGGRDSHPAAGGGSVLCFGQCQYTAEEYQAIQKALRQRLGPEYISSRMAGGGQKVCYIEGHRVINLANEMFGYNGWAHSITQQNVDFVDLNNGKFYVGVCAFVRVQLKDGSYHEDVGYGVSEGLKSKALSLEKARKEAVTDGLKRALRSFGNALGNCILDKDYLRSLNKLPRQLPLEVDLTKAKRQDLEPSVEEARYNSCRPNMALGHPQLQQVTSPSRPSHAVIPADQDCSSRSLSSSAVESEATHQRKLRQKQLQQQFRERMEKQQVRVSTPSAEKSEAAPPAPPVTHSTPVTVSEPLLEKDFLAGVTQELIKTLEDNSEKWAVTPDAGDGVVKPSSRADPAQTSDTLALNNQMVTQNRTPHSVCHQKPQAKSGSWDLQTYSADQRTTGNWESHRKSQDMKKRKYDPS

[11] = biological target: T6, Long-chain-fatty-acid--AMP ligase FadD28 (Mycobacterium tuberculosis, UniProt P9WQ59); assay: Fluorescence polarization aasay to screen for inhibitors that compete for the binding of FadD28 to a bisubstrate Measured in Biochemical System Using Plate Reader - 2147-01_Inhibitor_Dose_CherryPick_Activity.; format: functional, Mycobacterium tuberculosis H37Rv
T6 sequence (P9WQ59 whole entry): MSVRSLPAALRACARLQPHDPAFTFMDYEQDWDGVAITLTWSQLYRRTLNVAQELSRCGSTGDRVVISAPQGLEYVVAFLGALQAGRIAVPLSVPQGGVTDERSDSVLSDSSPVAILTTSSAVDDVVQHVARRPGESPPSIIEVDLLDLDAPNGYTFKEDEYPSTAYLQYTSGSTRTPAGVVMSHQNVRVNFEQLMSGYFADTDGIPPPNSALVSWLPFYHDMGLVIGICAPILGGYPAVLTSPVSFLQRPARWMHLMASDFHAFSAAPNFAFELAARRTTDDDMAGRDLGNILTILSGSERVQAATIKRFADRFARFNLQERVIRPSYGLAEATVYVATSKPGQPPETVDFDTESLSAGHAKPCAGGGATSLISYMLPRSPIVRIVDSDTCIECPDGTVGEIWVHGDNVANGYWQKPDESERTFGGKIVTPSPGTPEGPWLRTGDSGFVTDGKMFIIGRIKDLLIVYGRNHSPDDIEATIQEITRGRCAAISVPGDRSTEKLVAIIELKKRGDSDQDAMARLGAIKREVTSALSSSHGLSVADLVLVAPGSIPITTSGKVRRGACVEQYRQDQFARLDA

[12] = off-target signal loss in HeLa-CEM21 co-culture – HeLa F-luc CTL cells, cherry-picked, counter-screen for HIV-1 Env fusion inhibitor project, dose response (AID 652040); format: functional, cell-based;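 further: potency for signal decrease marking cytotoxic or nonspecific inhibition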
[13] = inhibitors of HIV Env-driven cell fusion, dose response, cherry-pick (AID 652057); format: functional, cell-based
Aminopeptidase N = biological target: T7, Aminopeptidase N (Plasmodium falciparum FcB1/Columbia, UniProt O96935); assay: P. falciparum M1AAP inhibitors, biochemical, fluorogenic H-Leu-NHMec substrate, 1536-well (AID 1445); parameters: species or system Plasmodium falciparum 3D7, 3D7
T7 sequence (O96935 whole entry): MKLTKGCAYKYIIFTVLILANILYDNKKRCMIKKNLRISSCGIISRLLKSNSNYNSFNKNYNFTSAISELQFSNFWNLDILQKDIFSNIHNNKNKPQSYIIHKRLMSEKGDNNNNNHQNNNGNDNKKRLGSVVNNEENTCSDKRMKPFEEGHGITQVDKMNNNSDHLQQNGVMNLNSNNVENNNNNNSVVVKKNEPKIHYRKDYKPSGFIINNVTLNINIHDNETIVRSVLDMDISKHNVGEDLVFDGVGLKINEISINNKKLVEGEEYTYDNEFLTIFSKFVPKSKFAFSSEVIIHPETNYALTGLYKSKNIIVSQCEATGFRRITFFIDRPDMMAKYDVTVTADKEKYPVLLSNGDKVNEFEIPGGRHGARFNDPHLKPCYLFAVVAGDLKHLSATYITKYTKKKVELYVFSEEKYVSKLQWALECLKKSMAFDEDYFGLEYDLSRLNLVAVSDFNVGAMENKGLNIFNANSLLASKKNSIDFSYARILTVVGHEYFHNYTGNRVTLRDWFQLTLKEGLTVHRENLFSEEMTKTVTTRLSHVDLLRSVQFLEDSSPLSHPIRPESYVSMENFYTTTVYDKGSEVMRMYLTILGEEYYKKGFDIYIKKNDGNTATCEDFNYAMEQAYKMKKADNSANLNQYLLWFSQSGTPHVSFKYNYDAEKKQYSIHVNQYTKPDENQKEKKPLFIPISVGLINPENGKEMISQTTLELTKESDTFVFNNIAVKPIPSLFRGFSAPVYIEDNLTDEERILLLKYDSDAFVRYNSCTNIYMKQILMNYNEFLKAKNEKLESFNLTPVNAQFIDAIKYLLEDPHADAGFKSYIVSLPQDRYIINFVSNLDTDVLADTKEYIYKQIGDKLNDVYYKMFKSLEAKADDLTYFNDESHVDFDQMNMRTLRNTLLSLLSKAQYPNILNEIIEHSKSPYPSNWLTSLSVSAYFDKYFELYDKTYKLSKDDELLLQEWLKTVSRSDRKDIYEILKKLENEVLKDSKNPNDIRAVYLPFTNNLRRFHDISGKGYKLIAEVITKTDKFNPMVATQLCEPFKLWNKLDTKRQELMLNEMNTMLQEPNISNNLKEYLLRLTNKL

SMILES: O=C(Nc1ccc(Cl)c(Cl)c1)C1CC(=O)N(c2ccc(Br)cc2)C1 (centres undefined)
- EC50 (Streptokinase A): 20.1 µM (active)
- EC50 [1]: 5.25 µM (active)
- EC50 (Streptococcus): 11.9 µM (active)
- IC50 (Prothrombin): > 50 µM (not active)

SMILES: CC1OC(O[C@H]2CC[C@]3(C)C4C=C[C@]56OC[C@@]7(CC[C@@H](C)[C@H](C)C75)[C@H](O)C[C@@]6(C)[C@]4(C)CC[C@H]3C2(C)C)C(OC2OC(CO)C(O)C(O)C2OC2OCC(O)C(O)C2O)C(O)C1O (some centres undefined)
- IC50 (Prothrombin): > 50 µM (not active)

SMILES: Cc1c(NC(=O)CSc2nnc3c4ccccc4n(CCc4ccccc4)c3n2)c(=O)n(-c2ccccc2)n1C
- EC50 [2]: 24.1 µM (active)
- CC50 [3]: 4.56 µM (active)
- IC50 (cells): 3.31 µM (active)

SMILES: CCCCCc1cc(=O)oc2c(C(CCN3CCCCC3)c3ccc(OC)cc3)c(OC)cc(OC)c12 (centres undefined)
- EC50 [4]: 15.3 µM (active)
- IC50 [5]: > 20 µM (inactive)
- AC50 [6]: 6.49 µM (active)

SMILES: Cc1cn([C@@H](CCCCNC(=O)OC(C)(C)C)C(=O)NCCCCCCCCCCC(=O)N2CCN(C(=O)OC(C)(C)C)CC2)nn1
- CC50 [7]: 37.6 µM (active)

SMILES: COC(=O)c1cc(C)nc2c(C)cc3[nH]c4ccccc4c3c12
- CC50 [7]: > 40 µM (active)
- CC50 [3]: 15 µM (active)

SMILES: CCOC(=O)c1nn(-c2ccccc2)c(C#N)c1NC(=O)c1nn(CC)cc1Br
- CC50 [7]: > 40 µM (active)
- IC50 [8]: > 80 µM (inactive)

SMILES: Nc1[nH]cnc2nc(SCCN3CCCCC3)nc1-2
- IC50 (Prothrombin): > 50 µM (not active)

SMILES: CN(C)CCCN(C(=O)c1ccc(C(=O)c2ccccc2)cc1)c1nc2cc3c(cc2s1)OCCO3
- IC50 [9]: 3.92 µM (active)
- IC50 (Bcl-2-related protein A1): > 20 µM (inactive)
- IC50 [5]: 7.1 µM (active)
- AC50 [10]: 14.7 µM (active)

SMILES: COc1ccccc1-n1c(C)cc(/C=C2/C(=N)N3C(=NC2=O)SN=C3S(C)(=O)=O)c1C
- CC50 [3]: 19.8 µM (active)
- IC50 (cells): 11.4 µM (active)

SMILES: Cc1ccc(C2CC(=O)NC(SCC(=O)Nc3nccs3)=C2C#N)cc1 (centres undefined)
- AC50 [11]: 51.5 µM (active)

SMILES: O=C(COC(=O)c1cc(Br)ccc1O)Nc1cc(S(=O)(=O)N2CCCC2)ccc1Cl
- IC50 (Prothrombin): 7.17 µM (active)

SMILES: CS(=O)(=O)N(Cc1ccc(Cl)cc1)c1ccc(C(=O)NCCC2=CCCCC2)cc1
- AC50 [12]: 6.69 µM (active)
- CC50 [7]: > 40 µM (active)
- AC50 [13]: 1.92 µM (active)

SMILES: C#CCOCCOCCOCCNc1nc(N2CCN(C(=O)[C@H](CCCCN)n3cc([C@@H](N)CC(N)=O)nn3)CC2)nc(N2CCN(C(=O)[C@H](CCCCN)n3cc([C@@H](N)CC(N)=O)nn3)CC2)n1
- IC50 [9]: 12.5 µM (active)
- IC50 (Bcl-2-related protein A1): > 20 µM (inactive)
- IC50 [5]: 17.3 µM (active)

SMILES: C/C(=N\NC(=O)c1cccc(Cl)c1)C1C(=O)c2ccccc2C1=O
- AC50 [11]: 68.6 µM (active)
- IC50 (Aminopeptidase N): 40.8 µM (active)
- AC50 [6]: 10.7 µM (active)
